# Tests used:
# Heliothis virescens = test: B.4 Tobacco Budworm, microtiter plate diet test; type: in vivo; conditions: 120 h, egg and larval mortality, 5 days, read-out: mortality in comparison with untreated controls
# Experimental: For evaluating control of Tobacco Budworm, the test unit consisted of 96-well-microtiter plates containing an insect diet and 15-25 H. virescens eggs. The compounds were formulated using a solution containing 75% v/v water and 25% v/v DMSO. Different concentrations of formulated compounds were sprayed onto the insect diet at 10 μl, using a custom-built micro atomizer, at two replications. After application, microtiter plates were incubated at about 28±1° C. and about 80±5% relative humidity for 5 days. Egg and larval mortality was then visually assessed.
# Spodoptera eridania = test: B.11 Southern Armyworm 2nd instar larvae, lima bean foliar spray test; type: in vivo; conditions: 96 h, 4 days after treatment, read-out: mortality in comparison with untreated controls
# Experimental: The active compounds were formulated by a Tecan liquid handler in 100% cyclohexanone as a 10′000 ppm solution supplied in tubes. The 10′000 ppm solution was serially diluted in 100% cyclohexanone to make interim solutions. These served as stock solutions for which final dilutions were made by the Tecan in 50% acetone:50% water (v/v) into 10 or 20 ml glass vials. A nonionic surfactant (Kinetic®) was included in the solution at a volume of 0.01% (v/v). The vials were then inserted into an automated electrostatic sprayer equipped with an atomizing nozzle for application to plants/insects. Lima bean plants (variety Sieva) were grown 2 plants to a pot and selected for treatment at the 1st true leaf stage. Test solutions were sprayed onto the foliage by an automated electrostatic plant sprayer equipped with an atomizing spray nozzle. The plants were dried in the sprayer fume hood and then removed from the sprayer. Each pot was placed into perforated plastic bags with a zip closure. Ten to 11 armyworm larvae were placed into the bag and the bags zipped closed. Test plants were maintained in a growth room at about 25° C. and about 20-40% relative humidity for 4 days, avoiding direct exposure to fluorescent light (14:10 light:dark photo-period) to prevent trapping of heat inside the bags. Mortality and reduced feeding were assessed 4 days after treatment, compared to untreated control plants.
compound,measurement,setting,value
"O=C(Nc1ncc(F)cc1F)c1cc(OC2=NOC(c3cc(Cl)c(F)c(Cl)c3)(C(F)(F)F)C2)ccc1Cl (centres unmarked) [II-8, 2-chloro-5-[[5-(3,5-dichloro-4-fluoro-phenyl)-5-(trifluoromethyl)-4H-isoxazol-3-yl]oxy]-N-(3,5-difluoro-2-pyridyl)benzamide]",mortality at 2500 ppm,Heliothis virescens,≥ 75%
same,mortality at 300 ppm,Spodoptera eridania,≥ 75%
